Broadly, the Ki is a dissociation constant, usually derived from enzyme kinetics or from competition with a known ligand. Low values mean tighter binding, high ones weaker binding.

This is an account of results in publication PMC11273453, “Pentaphosphorylation via the Anhydride of Dihydrogen Pentametaphosphate: Access to Nucleoside Hexa- and Heptaphosphates and Study of Their Interaction with Ribonuclease A” (ACS Central Science, 2024).

Assay [1] has as its target T1, Ribonuclease A (RNase A) (Bos taurus, UniProt P61823).
T1 construct: gene RNASE1
T1 sequence (P61823 27-150): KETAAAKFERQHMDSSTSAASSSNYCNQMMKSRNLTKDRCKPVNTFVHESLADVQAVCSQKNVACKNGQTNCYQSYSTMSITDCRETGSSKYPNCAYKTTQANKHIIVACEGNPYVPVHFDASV
In words: direct […]{1H} NMR titration (binding constant Ka). To be noted: read-out: direct 31P{1H} NMR titration (binding constant Ka) (converted).

Assay [2] concerns the target T1, Ribonuclease A (RNase A). In words: X-ray cocrystal structure (soaking); FRET inhibition assay (Ki); […] NMR titration. Type of assay: biochemical.
The target of assay [3] is T1, Ribonuclease A (RNase A). The assay can be described thus: X-ray cocrystal structure; RNase A inhibition assay (Ki). Format: biochemical.
Assay [4] deals with T1, Ribonuclease A (RNase A). In words: […]{1H} NMR competition titration with RNase A·p3A (binding constant Ka). To be noted: read-out: 31P{1H} NMR competition titration with RNase A.p3A (binding constant Ka) (converted).

Each structure is given as a SMILES string.

With `O=P1(O)OP(=O)(O)OP(=O)(O)OP(=O)(O)O1` [cP4i, tetrametaphosphate], at Ribonuclease A (RNase A) [1], the Kd is 23500 nM.
Turning to `O=c1ccn([C@@H]2O[C@H](COP(=O)(O)OP(=O)(O)OP(=O)(O)OP(=O)(O)OP(=O)(O)OP(=O)(O)O)[C@@H](O)[C@H]2O)c(=O)[nH]1` [p6U], the inhibitory constant (Ki) on Ribonuclease A (RNase A) [2] is 1100 ± 200 nM.
Take `Nc1ncnc2c1ncn2[C@@H]1O[C@H](COP(=O)(O)OP(=O)(O)OP(=O)(O)OP(=O)(O)OP(=O)(O)OP(=O)(O)OP(=O)(O)O)[C@@H](O)[C@H]1O` [p7A]: the Ki at Ribonuclease A (RNase A) [3] amounted to 2600 ± 400 nM.
In the case of `O=c1ccn([C@@H]2O[C@H](COP(=O)(O)OP(=O)(O)OP(=O)(O)OP(=O)(O)OP(=O)(O)O)[C@@H](O)[C@H]2O)c(=O)[nH]1` [p5U], the Kd on Ribonuclease A (RNase A) [4] was 53.8 nM.
Turning to `O=c1ccn([C@H]2O[C@@H](COP(=O)(O)OP(=O)(O)OP(=O)(O)OP(=O)(O)OP(=O)(O)OP(=O)(O)OP(=O)(O)O)[C@@H](O)[C@H]2O)c(=O)[nH]1` [p7U], on Ribonuclease A (RNase A) [2], the Ki is 1000 ± 200 nM.
`Nc1ncnc2c1ncn2[C@@H]1O[C@H](COP(=O)(O)OP(=O)(O)OP(=O)(O)OP(=O)(O)OP(=O)(O)OP(=O)(O)O)[C@@H](O)[C@H]1O` [p6A] returned an inhibition constant Ki on Ribonuclease A (RNase A) [3] of 3600 ± 600 nM.
